Data as given in the supplement of paper PMC11061612.

Columns and labels:
[1] = system: KYAE-1 (Esophageal Adenocarcinoma); assay: combination Emax (second highest fraction inhibited in the dose matrix, 72 h); higher = more inhibition; extreme values may be limits of the assay
Outline: (§1)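 Bliss excess equals the observed combination effect minus the expected value EA + EB − EA·EB, where EA and EB are the effects of each agent alone. Combination Emax is the second-highest inhibition within the matrix. Inhibition was scaled from CellTiter-Glo 2.0 luminescence, with 0 set by vehicle wells and 1 by blank wells, after 72 hours of two-drug dosing of cells plated in 1536-well plates.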

[2] = system: SNU-16 (Gastric Carcinoma); assay: as above
Outline: as §1

NCI-H2052 (Mesothelioma) [3] = assay: as above
Outline: as §1

[4] = system: MHH-CALL-2 (B-Lymphoblastic Leukemia); assay: as above
Outline: as §1

[5] = system: NUGC-4 (Gastric Carcinoma); assay: as above
Outline: as §1

[6] = system: BE-13 (T-Lymphoblastic Leukemia); assay: as above
Outline: as §1

EW-11 (Ewing's Sarcoma) = assay: as above
Outline: as §1

[7] = system: SNU-449 (Hepatocellular Carcinoma); assay: as above
Outline: as §1

KS-1 (Glioblastoma) = assay: as above
Outline: as §1

[8] = system: Detroit562 (Head and Neck Carcinoma); assay: as above
Outline: as §1

[9] = system: HeLa (Cervical Carcinoma); assay: as above
Outline: as §1

[10] = system: ALL-PO (B-Lymphoblastic Leukemia); assay: as above
Outline: as §1

[11] = system: FTC-133 (Thyroid Gland Carcinoma); assay: as above
Outline: as §1

[12] = system: BFTC-909 (Kidney Carcinoma); assay: as above
Outline: as §1

[13] = system: HuCCT1 (Biliary Tract Carcinoma); assay: as above
Outline: as §1

[14] = system: KYAE-1 (Esophageal Adenocarcinoma); assay: Bliss excess, mean over the matrix (fraction); higher = more synergy
Outline: as §1

NCI-H2052 (Mesothelioma) [15] = assay: as above
Outline: as §1

[16] = system: MHH-CALL-2 (B-Lymphoblastic Leukemia); assay: as above
Outline: as §1

[17] = system: OVCAR-5 (Ovarian Carcinoma); assay: as above
Outline: as §1

[18] = system: LS-123 (Colorectal Carcinoma); assay: as above
Outline: as §1

SMILES | combination Emax [1] | combination Emax [2] | combination Emax (NCI-H2052 (Mesothelioma) [3]) | combination Emax [4] | combination Emax [5] | combination Emax [6] | combination Emax (EW-11 (Ewing's Sarcoma)) | combination Emax [7] | combination Emax (KS-1 (Glioblastoma)) | combination Emax [8] | combination Emax [9] | combination Emax [10] | combination Emax [11] | combination Emax [12] | combination Emax [13] | Bliss excess [14] | Bliss excess (NCI-H2052 (Mesothelioma) [15]) | Bliss excess [16] | Bliss excess [17] | Bliss excess [18]
CN(CCO)CC[C@H](CSc1ccccc1)Nc1ccc(S(=O)(=O)NC(=O)c2ccc(N3CCC([C@@H](O)c4ccccc4-c4ccc(Cl)cc4)CC3)cc2)cc1S(=O)(=O)C(F)(F)F [AZD4320] + C[C@@H](Nc1cc(F)cc(F)c1)c1cc(C(=O)N(C)C)cc2c(=O)cc(N3CCOCC3)oc12 [AZD8186] (first compound max 1 µM, 7x7, partner max 3 µM) | 0.387 | 0.658 | 0.262 | 0.917 | 0.564 | 1 | 0.938 | 0.313 | 0.486 | 0.666 | 0.359 | 1 | 0.803 | 0.595 | 0.35 | 0.011 | -0.0278 | 0.042 | -0.0133 | –
CC1(C)CCC(CN2CCN(c3ccc(C(=O)NS(=O)(=O)c4ccc(NCC5CCOCC5)c([N+](=O)[O-])c4)c(Oc4cnc5[nH]ccc5c4)c3)CC2)=C(c2ccc(Cl)cc2)C1 [Venetoclax] + C[C@@H](Nc1cc(F)cc(F)c1)c1cc(C(=O)N(C)C)cc2c(=O)cc(N3CCOCC3)oc12 [AZD8186] (first compound max 1 µM, 7x7, partner max 3 µM) | 0.554 | 0.251 | 0.217 | 0.294 | 0.287 | 0.375 | 0.699 | 0.172 | 0.341 | 0.137 | 0.124 | 0.703 | 0.182 | 0.203 | 0.185 | -0.0358 | -0.0266 | 0.0163 | -0.0495 | 0.0135
CN(CCO)CC[C@H](CSc1ccccc1)Nc1ccc(S(=O)(=O)NC(=O)c2ccc(N3CCC([C@@H](O)c4ccccc4-c4ccc(Cl)cc4)CC3)cc2)cc1S(=O)(=O)C(F)(F)F [AZD4320] + C=CCn1c(=O)c2cnc(Nc3ccc(N4CCN(C)CC4)cc3)nc2n1-c1cccc(C(C)(C)O)n1 [AZD1775] (first compound max 1 µM, partner max 1 µM) | 0.843 | 0.917 | 0.374 | 0.739 | 0.374 | 1 | 0.949 | 0.138 | 0.549 | 0.684 | 0.722 | 1 | 0.919 | 0.905 | 0.807 | 0.032 | 0.0004 | 0.14 | – | –
CN(CCO)CC[C@H](CSc1ccccc1)Nc1ccc(S(=O)(=O)NC(=O)c2ccc(N3CCC([C@@H](O)c4ccccc4-c4ccc(Cl)cc4)CC3)cc2)cc1S(=O)(=O)C(F)(F)F [AZD4320] + CN(C)CCCOc1ccc(-c2ccc3ncc4c(c3c2)n(C2CCOCC2)c(=O)n4C)cn1 [AZD0156] (first compound max 1 µM, 7x7, partner max 1 µM) | 0.338 | 0.322 | 0.201 | 0.391 | 0.174 | 0.977 | 0.854 | 0.15 | 0.239 | 0.168 | 0.0679 | 0.97 | 0.44 | 0.239 | 0.251 | -0.0114 | -0.0383 | 0.106 | -0.0527 | –
CN(CCO)CC[C@H](CSc1ccccc1)Nc1ccc(S(=O)(=O)NC(=O)c2ccc(N3CCC([C@@H](O)c4ccccc4-c4ccc(Cl)cc4)CC3)cc2)cc1S(=O)(=O)C(F)(F)F [AZD4320] + Cn1cnc2c(F)c(Nc3ccc(Br)cc3Cl)c(C(=O)NOCCO)cc21 [Selumetinib] (first compound max 1 µM, 7x7, partner max 3 µM) | 0.377 | 0.649 | 0.262 | 0.965 | 0.766 | 0.995 | 0.934 | 0.221 | 0.341 | 0.637 | 0.397 | 1 | 0.74 | 0.473 | 0.571 | -0.0146 | 0.0283 | 0.298 | -0.0282 | –
Cc1c2c(nn1C)CSCc1cc(n(C)n1)CSc1cc(c3ccccc3c1)OCCCc1c(C(=O)O)n(C)c3c-2c(Cl)ccc13 [AZD5991] + CCN(CCO)CCCOc1ccc2c(Nc3cc(CC(=O)Nc4cccc(F)c4)[nH]n3)ncnc2c1 [AZD2811] (first compound max 1 µM, 7x7, partner max 1 µM) | 0.296 | 0.996 | 0.265 | 0.987 | 0.22 | 0.929 | 0.872 | 0.282 | 0.286 | 0.951 | 0.763 | 1 | 0.761 | 0.438 | 0.267 | 0.0422 | -0.0253 | 0.0503 | -0.0434 | –
CN(CCO)CC[C@H](CSc1ccccc1)Nc1ccc(S(=O)(=O)NC(=O)c2ccc(N3CCC([C@@H](O)c4ccccc4-c4ccc(Cl)cc4)CC3)cc2)cc1S(=O)(=O)C(F)(F)F [AZD4320] + C[C@@H]1COCCN1C2=NC(=NC(=C2)C3(CC3)[S@](=N)(=O)C)C4=C5C=CNC5=NC=C4 [AZD6738] (first compound max 1 µM, 7x7, partner max 10 µM) | 0.51 | 0.994 | 0.439 | 0.921 | 0.739 | 1 | 0.957 | 0.19 | 0.68 | 0.905 | 0.717 | 1 | 0.947 | 0.997 | 0.765 | 0.0036 | -0.0021 | 0.0042 | -0.0282 | –
CN(CCO)CC[C@H](CSc1ccccc1)Nc1ccc(S(=O)(=O)NC(=O)c2ccc(N3CCC([C@@H](O)c4ccccc4-c4ccc(Cl)cc4)CC3)cc2)cc1S(=O)(=O)C(F)(F)F [AZD4320] + C1CN(CCC1(C(=O)N[C@@H](CCO)C2=CC=C(C=C2)Cl)N)C3=NC=NC4=C3C=CN4 [Capivasertib] (first compound max 1 µM, 7x7, partner max 3 µM) | 0.65 | 0.27 | 0.229 | 0.311 | 0.0873 | 0.994 | 0.837 | 0.0999 | 0.296 | 0.414 | 0.0628 | 0.97 | 0.517 | 0.346 | 0.121 | -0.031 | -0.0743 | -0.0126 | -0.0487 | –
CN(C)CCCOc1ccc(-c2ccc3ncc4c(c3c2)n(C2CCOCC2)c(=O)n4C)cn1 [AZD0156] + O=C(c1cc(Cc2n[nH]c(=O)c3ccccc23)ccc1F)N1CCN(C(=O)C2CC2)CC1 [Olaparib] (first compound max 3 µM, partner max 3 µM) | 0.271 | – | 0.251 | 0.228 | 0.286 | 0.428 | 0.539 | 0.0695 | 0.197 | 0.435 | 0.131 | 0.505 | – | 0.527 | 0.202 | 0.0247 | -0.0064 | 0.106 | -0.0123 | -0.0346
C=CCn1c(=O)c2cnc(Nc3ccc(N4CCN(C)CC4)cc3)nc2n1-c1cccc(C(C)(C)O)n1 [AZD1775] + C1CN(CCC1(C(=O)N[C@@H](CCO)C2=CC=C(C=C2)Cl)N)C3=NC=NC4=C3C=CN4 [Capivasertib] (first compound max 3 µM, partner max 3 µM) | 0.579 | – | 0.518 | 0.869 | 0.574 | 0.968 | 0.69 | 0.271 | 0.589 | 0.92 | 0.877 | 0.754 | – | 0.922 | 0.741 | -0.0284 | -0.0369 | 0.029 | -0.0923 | -0.0341
Cc1c2c(nn1C)CSCc1cc(n(C)n1)CSc1cc(c3ccccc3c1)OCCCc1c(C(=O)O)n(C)c3c-2c(Cl)ccc13 [AZD5991] + C[C@@H]1COCCN1C2=NC(=NC(=C2)C3(CC3)[S@](=N)(=O)C)C4=C5C=CNC5=NC=C4 [AZD6738] (first compound max 1 µM, 7x7, partner max 10 µM) | 0.207 | 1 | 0.338 | 1 | 0.561 | – | 0.932 | 0.198 | 0.587 | 0.902 | 0.856 | 1 | 0.923 | 0.931 | 0.756 | 0.0054 | 0.039 | 0.0225 | -0.0248 | -0.0046
COc1cccc(OCCCN)c1-c1cc(Nc2cnc(C#N)cn2)n[nH]1 [Prexasertib] + CN(C)CCCOc1ccc(-c2ccc3ncc4c(c3c2)n(C2CCOCC2)c(=O)n4C)cn1 [AZD0156] (first compound max 1 µM, 7x7, partner max 1 µM) | 0.594 | 1 | 0.556 | – | 0.49 | 0.965 | 0.756 | 0.326 | 0.581 | 0.922 | 0.859 | 0.979 | 0.805 | 0.936 | 0.819 | 0.0184 | -0.025 | – | -0.0273 | -0.0387
